Active and inactive are the calls of the source.
Assays:
Type in all cases: functional, cell-based
U-251 = assay: Growth inhibition of human U251 cells at 10 uM after 48 hrs by sulforhodamine B assay
HCT-15 = assay: Growth inhibition of human HCT15 cells at 10 uM after 48 hrs by sulforhodamine B assay
EKVX = assay: Growth inhibition of human EKVX cells at 10 uM after 48 hrs by sulforhodamine B assay
NCI-H522 = assay: Growth inhibition of human NCI-H522 cells at 10 uM after 48 hrs by sulforhodamine B assay
BT-549 = assay: Growth inhibition of human BT549 cells at 10 uM after 48 hrs by sulforhodamine B assay
K562 = assay: Growth inhibition of human K562 cells at 10 uM after 48 hrs by sulforhodamine B assay
SNB-19 = assay: Growth inhibition of human SNB19 cells at 10 uM after 48 hrs by sulforhodamine B assay
RXF 393 = assay: Growth inhibition of human RXF393 cells at 10 uM after 48 hrs by sulforhodamine B assay
UO-31 = assay: Growth inhibition of human UO31 cells at 10 uM after 48 hrs by sulforhodamine B assay
OVCAR-3 = assay: Growth inhibition of human OVCAR3 cells at 10 uM after 48 hrs by sulforhodamine B assay
786-0 = assay: Growth inhibition of human 786-0 cells at 10 uM after 48 hrs by sulforhodamine B assay
NCI-H322M = assay: Growth inhibition of human NCI-H322M cells at 10 uM after 48 hrs by sulforhodamine B assay
NCI-H23 = assay: Growth inhibition of human NCI-H23 cells at 10 uM after 48 hrs by sulforhodamine B assay
HOP-62 = assay: Growth inhibition of human HOP62 cells at 10 uM after 48 hrs by sulforhodamine B assay
SF-268 = assay: Growth inhibition of human SF268 cells at 10 uM after 48 hrs by sulforhodamine B assay
CCRF-CEM = assay: Growth inhibition of human CCRF-CEM cells at 10 uM after 48 hrs by sulforhodamine B assay
Malme-3M = assay: Growth inhibition of human MALME-3M cells at 10 uM after 48 hrs by sulforhodamine B assay
HCT-116 = assay: Growth inhibition of human HCT116 cells at 10 uM after 48 hrs by sulforhodamine B assay
A549 = assay: Growth inhibition of human A549/ATCC cells at 10 uM after 48 hrs by sulforhodamine B assay
IGROV-1 = assay: Growth inhibition of human IGROV1 cells at 10 uM after 48 hrs by sulforhodamine B assay
M14 = assay: Growth inhibition of human M14 cells at 10 uM after 48 hrs by sulforhodamine B assay
SNB-75 = assay: Growth inhibition of human SNB75 cells at 10 uM after 48 hrs by sulforhodamine B assay
SK-MEL-5 = assay: Growth inhibition of human SK-MEL-5 cells at 10 uM after 48 hrs by sulforhodamine B assay
SW-620 = assay: Growth inhibition of human SW620 cells at 10 uM after 48 hrs by sulforhodamine B assay
ACHN = assay: Growth inhibition of human ACHN cells at 10 uM after 48 hrs by sulforhodamine B assay
OVCAR-5 = assay: Growth inhibition of human OVCAR5 cells at 10 uM after 48 hrs by sulforhodamine B assay
UACC-62 = assay: Growth inhibition of human UACC62 cells at 10 uM after 48 hrs by sulforhodamine B assay
HCC 2998 = assay: Growth inhibition of human HCC2998 cells at 10 uM after 48 hrs by sulforhodamine B assay
HL-60(TB) = assay: Growth inhibition of human HL-60(TB) cells at 10 uM after 48 hrs by sulforhodamine B assay
RPMI-8226 = assay: Growth inhibition of human RPMI8226 cells at 10 uM after 48 hrs by sulforhodamine B assay
MDA-MB-468 = assay: Growth inhibition of human MDA-MB-468 cells at 10 uM after 48 hrs by sulforhodamine B assay
CAKI-1 = assay: Growth inhibition of human CAKI-1 cells at 10 uM after 48 hrs by sulforhodamine B assay
MOLT-4 = assay: Growth inhibition of human MOLT4 cells at 10 uM after 48 hrs by sulforhodamine B assay
SK-MEL-28 = assay: Growth inhibition of human SK-MEL-28 cells at 10 uM after 48 hrs by sulforhodamine B assay
TK-10 = assay: Growth inhibition of human TK10 cells at 10 uM after 48 hrs by sulforhodamine B assay
COLO 205 = assay: Growth inhibition of human COLO205 cells at 10 uM after 48 hrs by sulforhodamine B assay
NCI-H226 = assay: Growth inhibition of human NCI-H226 cells at 10 uM after 48 hrs by sulforhodamine B assay
SK-OV-3 = assay: Growth inhibition of human SKOV3 cells at 10 uM after 48 hrs by sulforhodamine B assay
OVCAR-8 = assay: Growth inhibition of human OVCAR8 cells at 10 uM after 48 hrs by sulforhodamine B assay
MDA-MB-231 = assay: Growth inhibition of human MDA-MB-231 cells at 10 uM after 48 hrs by sulforhodamine B assay
T47D = assay: Growth inhibition of human T47D cells at 10 uM after 48 hrs by sulforhodamine B assay
KM12 = assay: Growth inhibition of human KM12 cells at 10 uM after 48 hrs by sulforhodamine B assay
NCI-H460 = assay: Growth inhibition of human NCI-H460 cells at 10 uM after 48 hrs by sulforhodamine B assay
MDA-MB-435 = assay: Growth inhibition of human MDA-MB-435 cells at 10 uM after 48 hrs by sulforhodamine B assay
SF-539 = assay: Growth inhibition of human SF539 cells at 10 uM after 48 hrs by sulforhodamine B assay
Hs-578T = assay: Growth inhibition of human Hs 578T cells at 10 uM after 48 hrs by sulforhodamine B assay
SF-295 = assay: Growth inhibition of human SF295 cells at 10 uM after 48 hrs by sulforhodamine B assay
A498 = assay: Growth inhibition of human A498 cells at 10 uM after 48 hrs by sulforhodamine B assay
NCI/ADR-RES = assay: Growth inhibition of human NCI-ADR-RES cells at 10 uM after 48 hrs by sulforhodamine B assay
SN12C = assay: Growth inhibition of human SN12C cells at 10 uM after 48 hrs by sulforhodamine B assay
HOP-92 = assay: Growth inhibition of human HOP92 cells at 10 uM after 48 hrs by sulforhodamine B assay
PC-3 = assay: Growth inhibition of human PC3 cells at 10 uM after 48 hrs by sulforhodamine B assay
MCF7 = assay: Growth inhibition of human MCF7 cells at 10 uM after 48 hrs by sulforhodamine B assay
HT-29 = assay: Growth inhibition of human HT-29 cells at 10 uM after 48 hrs by sulforhodamine B assay
DU-145 = assay: Growth inhibition of human DU145 cells at 10 uM after 48 hrs by sulforhodamine B assay
SR = assay: Growth inhibition of human SR cells at 10 uM after 48 hrs by sulforhodamine B assay
OVCAR-4 = assay: Growth inhibition of human OVCAR4 cells at 10 uM after 48 hrs by sulforhodamine B assay
LOX IMVI = assay: Growth inhibition of human LOXIMVI cells at 10 uM after 48 hrs by sulforhodamine B assay
SK-MEL-2 = assay: Growth inhibition of human SK-MEL-2 cells at 10 uM after 48 hrs by sulforhodamine B assay

Measured: growth inhibition (GI)

O=C1/C(=C\c2ccc[nH]2)c2ccccc2N1c1c(Cl)cccc1Cl
inactive: all assays above

From ChEMBL document CHEMBL4177730, “Rational modification of semaxanib and sunitinib for developing a tumor growth inhibitor targeting ATP binding site of tyrosine kinase” (2018)
